Results from US8298793B2, “Methods for isolating proteons from plasma samples” (Auburn University, priority 2002, dated 2012).
Several values for one entry are separate records, joined by “and”; a condition that tells them apart may be missing. Equal entries are not always repeated. Entries after “also recorded” stand apart in the source; their conditions may differ. Structures can show the parent of a compound that is named as a salt.

Key:
proteons = experiment: Proteon formation in plasma, counted by dark-field microscopy; format: biochemical; conditions: for number of proteons visible by dark-field microscopy: added to proteons produced without chaotropic compounds, then 120° C. and 20 psi; for number of proteons with rising concentration of chaotropic compound: plasma with 0, 0.01, 0.1, 1, 4 and 8 M, 120° C., 20 psi, dark-field microscopy
RG2 cells = experiment: MTT cell proliferation assay on RG2 glioma cells; format: cell-based, mouse
Procedure: The impact of PNCs upon viability of various cultured cells was investigated using the tetrazolium salt (MTT) cell proliferation assay. RG2 (mouse brain glioma), F98 (rat brain glioma), Hs683 (human brain glioma), CTX TNA2 (rat transfected astrocyte), H9c2[2-1] (rat heart myocardium), 27FR (rat skin fibroblast), and SVGp12 (human brain astroglia) cells were obtained from American Type Culture Collection (ATCC) and maintained as recommended by ATCC. […] Cells were plated in Dulbecco's modified Eagle's growth medium ([MUT], Sigma Chemical Inc., St. […] PNCs were autoclaved at 120° C. and 20 psi for 15 minutes before adding to the cell cultures. […] MTT was reduced in metabolically active cells to form purple formazan crystals, which were dissolved by DMSO and quantified by a BIO-RADTM plate reader. For each cell type, a linear relationship between cell number and absorbance is established, enabling accurate, straightforward quantification of changes in proliferation. […] Catalog No. S5921), 100 μg, FW 466.5. Dissolve 100 μg staurospine into 214.3 μl • DMSO to equal a 1 mM stock solution. Store at -200° C. […] TX put on late afternoon. • Add staurospine, autoclaved shark PNC, and either 10%, 1%, or 0% FCS treatments to cells and incubate overnight.

[1] = test system: SVGp12 (human brain astroglia) cells; experiment: MTT cell proliferation assay on SVG astrocytes; format: cell-based; conditions: SVG astro, Staurosporine, 1% FCS, concentration not printed; for Absorbance at 550 nm (MTT), single well: listed as Staurosporine
Excerpt: (§1) The impact of PNCs upon viability of various cultured cells was investigated using the tetrazolium salt (MTT) cell proliferation assay. RG2 ([…] brain glioma), F98 (rat brain glioma), Hs683 (human brain glioma), CTX TNA2 (rat transfected astrocyte), H9c2[2-1] (rat heart myocardium), 27FR (rat skin fibroblast), and SVGp12 (human brain astroglia) cells were obtained from American Type Culture Collection (ATCC) and maintained as recommended by ATCC. MTT cell proliferation assays are commercially available. See, e.g., MTT cell proliferation assay from ATCC. Cells were plated in Dulbecco's modified Eagle's growth medium ([…], Sigma Chemical Inc., St. […] PNCs were isolated from blood obtained from shark, dog, and rabbit using the ultrafiltration protocol described in Example 5. PNCs were autoclaved at 120° C. and 20 psi for 15 minutes before adding to the cell cultures. […] MTT was reduced in metabolically active cells to form purple formazan crystals, which were dissolved by DMSO and quantified by a BIO-RADTM plate reader. For each cell type, a linear relationship between cell number and absorbance is established, enabling accurate, straightforward quantification of changes in proliferation.

[2] = test system: F98 (rat brain glioma) cells; experiment: MTT cell proliferation assay on F98 glioma cells; format: cell-based; conditions: Staurosporine, 1% FCS, concentration not printed; for Absorbance at 550 nm (MTT), single well: listed as Staurosporine
Excerpt: as §1

[3] = test system: CTX TNA2 (rat transfected astrocyte) cells; experiment: MTT cell proliferation assay on CTX astrocytes; format: cell-based; conditions: CTX astro, Staurosporine, 1% FCS
Excerpt: as §1

[4] = test system: 27FR (rat skin fibroblast) cells; experiment: MTT cell proliferation assay on fibroblasts; format: cell-based; conditions: Fibro, Staurosporine, 1% FCS
Excerpt: as §1

[5] = test system: H9c2[2-1] (rat heart myocardium) cells; experiment: MTT cell proliferation assay on myocardium cells; format: cell-based; conditions: Staurosporine, 1% FCS, concentration not given
Excerpt: as §1

[6] = RG2, 10% FCS, staurosporine 1 μM, Table 6
[7] = RG2, Staurosporine 100 urn, 1% FCS, Table 10
[8] = RG2, Staurosporine, 1% FCS, Table 10, concentration not given
[9] = Table 10, concentration not given
[10] = myocard, Table 10 second myocard column

O=C(O)CN(CCN(CC(=O)O)CC(=O)O)CC(=O)O [EDTA, ethylene diamine tetra acetate]
effect on formation of proteons from plasma (proteons; 10 mM EDTA added): prevented the formation of proteon; also recorded: production was quenched

N=C(N)N [guanidine hydrochloride]
number of proteons visible by dark-field microscopy (proteons): great reduction | number of proteons with rising concentration of chaotropic compound (proteons): decreased

CN[C@@H]1C[C@H]2O[C@@](C)([C@@H]1OC)n1c3ccccc3c3c4c(c5c6ccccc6n2c5c31)C(=O)NC4 [staurosporine]
Ab. Av. (Absorbance at 550 nm, MTT) (RG2 cells; [6]): 0.4053 | Absorbance at 550 nm (MTT), single well (RG2 cells; [6]): 0.406 and 0.411 and 0.399 | Ab. Av. (Absorbance at 550 nm, MTT) (RG2 cells; [7]): 0.2893 | Absorbance at 550 nm (MTT), single well (RG2 cells; [7]): 0.272 and 0.279 | Ab. Av. (Absorbance at 550 nm, MTT) (RG2 cells; [8]): 0.1268 | Absorbance at 550 nm (MTT), single well (RG2 cells; [8]): 0.149 and 0.12 and 0.119 | Ab Av. (Absorbance at 550 nm, MTT) (RG2 cells; RG2, stauro 1% FCS (1 μM per protocol b158), Table 7): 0.09867 | Ab. Av. (Absorbance at 550 nm, MTT) ([1]; Table 10 first SVG column): 0.128 | Absorbance at 550 nm (MTT), single well ([1]; Table 10 first SVG column): 0.128 and 0.12 and 0.136 | Ab. Av. (Absorbance at 550 nm, MTT) ([1]; Table 10 second SVG column): 0.067 | Absorbance at 550 nm (MTT), single well ([1]; Table 10 second SVG column): 0.067 and 0.066 and 0.068 | Ab. Av. (Absorbance at 550 nm, MTT) ([2]; Table 10 first F98 column): 0.1333 | Absorbance at 550 nm (MTT), single well ([2]; Table 10 first F98 column): 0.136 and 0.138 and 0.12 and 0.139 | Ab. Av. (Absorbance at 550 nm, MTT) ([2]; Table 10 second F98 column): 0.1085 | Absorbance at 550 nm (MTT), single well ([2]; Table 10 second F98 column): 0.108 and 0.109 | Ab. Av. (Absorbance at 550 nm, MTT) [3, 9]: 0.1445 | Absorbance at 550 nm (MTT), single well [3, 9]: 0.122 and 0.118 and 0.126 | Ab. Av. (Absorbance at 550 nm, MTT) ([3]; Table 10 first CTX column, concentration not given): 0.3782 | Ab. Av. (Absorbance at 550 nm, MTT) [4, 9]: 0.2757 | Absorbance at 550 nm (MTT), single well [4, 9]: 0.296 and 0.257 and 0.275 | Ab. Av. (Absorbance at 550 nm, MTT) ([4]; Table 10 second Fibro column, concentration not given): 0.169 | Ab. Av. (Absorbance at 550 nm, MTT) ([5]; Myocard, Table 10 first Myocard column): 0.283 | Ab. Av. (Absorbance at 550 nm, MTT) [5, 10]: 0.16 | Absorbance at 550 nm (MTT), single well [5, 10]: 0.176

NC(N)=O [urea]
number of proteons visible by dark-field microscopy (proteons): great reduction | number of proteons with rising concentration of chaotropic compound (proteons): decreased
